Test results: article PMC5716539, “The acute glucose lowering effect of specific GPR120 activation in mice is mainly driven by glucagon-like peptide 1” (PLoS ONE, 2017)

Assays:
[1] = target: T1, human GPR120 (Homo sapiens, UniProt Q5NUL3); assay: DMR (dynamic mass redistribution) assay in CHO-hGPR120 cells; assay type: cell-based; conditions: for DMR response after Gαs inhibition: CHO-hGPR120 cells treated with CTX; for DMR response after Gαi inhibition: CHO-hGPR120 cells treated with PTX; for DMR response after Gαq inhibition: CHO-hGPR120 cells treated with QIC; for EC50: mean ± SEM
T1 construct: expressed in transfected cells
T1 sequence (Q5NUL3 1-361): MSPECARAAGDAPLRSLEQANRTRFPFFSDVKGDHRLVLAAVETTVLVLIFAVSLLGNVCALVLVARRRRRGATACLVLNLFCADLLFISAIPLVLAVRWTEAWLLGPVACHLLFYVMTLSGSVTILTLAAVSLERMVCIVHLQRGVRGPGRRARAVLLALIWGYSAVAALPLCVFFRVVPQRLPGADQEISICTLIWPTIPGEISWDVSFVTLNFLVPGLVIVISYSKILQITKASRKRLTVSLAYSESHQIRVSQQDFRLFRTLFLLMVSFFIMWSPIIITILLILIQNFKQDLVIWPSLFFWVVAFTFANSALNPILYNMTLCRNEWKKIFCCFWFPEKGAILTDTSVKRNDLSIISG

[2] = target: T2, mouse GPR40 (Mus musculus, UniProt Q76JU9); assay: Calcium mobilization assay in HEK293-mGPR40 cells; assay type: cell-based
T2 construct: expressed in transfected cells
Description: (§1) CHO-hGPR120 and CHO cells were cultured in DMEM/F-12 (Invitrogen) with 10% FBS (Sigma) and HEK293-mGPR40 in DMEM (Invitrogen) supplemented with 10% FBS in 384-well poly-D-Lysin coated microplates (Greiner) at 37°C, 95% humidity and 5% CO2. After 19 hours cell media was replaced with Calcium4 dye (Molecular Devices) in HBSS (Invitrogen), 20 mM HEPES (Invitrogen), pH 7.4 and 1.25 mM Probenecid (Sigma). After 1 hour at room temperature agonists were added and calcium mobilization was detected as change in fluorescence (λex = 488 and λem = 540 nm) using a FLIPR^TETRA (Molecular Devices).

[3] = test system: control CHO cells; assay: Calcium mobilization assay in control CHO cells; assay type: cell-based, Chinese hamster
Description: as §1

[4] = test system: lean male mice; assay: Oral glucose tolerance test (OGTT) in lean male mice; assay type: in vivo, mouse; conditions: for Glucose excursions following oral glucose administration: oral dosing, different doses, glucose 2 g/kg, vs vehicle; for Dose at which significantly improved glucose tolerance was observed: oral, OGTT lean male mice; for Calculated unbound effective concentration, Ce50: unbound concentration giving 50% decrease in blood glucose over time vs vehicle, turnover model
Description: OGTT tests were performed in lean male mice (body weight 27-32g), randomized on body weight, fasted for 16 hours. An oral glucose load (2 g/kg) was administered 30 min (AZ13581837, 7 and 18 mg/kg) or 60 min (Metabolex-36, 10, 30 and 100 mg/kg) after oral dosing with the GPR120 agonists and blood glucose was measured at -30, 0, 10, 25, 40, 60 and 90 min post glucose administration. The specificity of Metabolex-36 was examined in male GPR120 null mice. The administration time for the GPR120 agonists was optimized depending on the pharmacokinetic profile of each compound, in order to maximize the plasma exposure of the compounds during the experiments.
For OGTT a turnover model with a log-linear drug function was used to model the glucose lowering effect determined as the effective concentration resulting in a 50% decrease in blood glucose over time (Ce50) compared to vehicle. All analyses were performed using Phoenix WinNonlin 6.4 (Certara, Princeton, NJ, USA). The area under the glucose excursion curve was calculated and used for statistical evaluation.

[5] = test system: lean female mice; assay: Intravenous glucose tolerance test (IVGTT) in lean female mice; assay type: in vivo, mouse; conditions: for Basal blood glucose: 4-hour fasted female mice, oral Metabolex-36 100 mg/kg or AZ13581837 35 mg/kg, vehicle 7.8±0.2 mM; for Acute insulin response (AIR): vs controls; for Acute insulin response (AIR) / Glucose elimination between 1 and 20 min / Time after iv glucose bolus up to which insulin levels were significantly elevated: Metabolex-36 100 mg/kg; for Acute insulin response (AIR) / Glucose elimination between 1 and 20 min: AZ13581837 35 mg/kg oral; for Time after iv glucose bolus up to which insulin levels were significantly elevated: oral pre-administration, AZ13581837 35 mg/kg
Description: Lean female mice (body weight 20–25 g), were randomized on body weight and fasted 4 hours prior to the IVGTT. Metabolex-36 (100 mg/kg) was administered orally 60 min and AZ13581837 (35mg/kg) 30 min before the IVGTT ([…]). Control mice were given vehicle (0.5% HPMC, 0.1% Tween-80) at corresponding time points. The specificity of AZ13581837 was examined in IVGTT in GPR120 null mice. GPR120 agonist doses were selected to reach plasma levels of at least 10 times over the in vitro EC50 value to achieve maximal activation of GPR120 (S2 Appendix). Thirty minutes prior to the glucose load, the mice were anaesthetised (20 mg/kg fluanisone/0.8 mg/kg fentanyl (Hypnorm®, Janssen, Beerse, Belgium) and 10 mg/kg midazolam (Dormicum®, Hoffman-LaRoche, Basel, Switzerland)) to allow for rapid blood sampling. The mice were kept at a heating pad to maintain body temperature.
In separate experiments, mice were pretreated with the GLP-1 receptor antagonist exendin 9–39 (30 nmol/kg, Bachem; intraperitoneally) alone or in combination with the GPR120 agonists, 15 min prior to the IVGTT. Insulin and glucose were measured 0, 1, 5, 10, 20 and 40 min after intravenous (iv) glucose administration. In separate groups of mice total GLP-1 levels were measured 60 min after oral administration of Metabolex-36 or 30 min after AZ13581837 and in corresponding vehicle (0.5% HPMC, 0.1% Tween-80) dosed mice. Blood samples were collected in EDTA coated tubes, centrifuged at 10000xg for 4 min, and plasma was separated and stored frozen until analyzed.
In the IVGTT, the acute insulin response (AIR) was calculated as the mean of suprabasal 1 and 5 min values, and the glucose elimination was quantified using the glucose elimination constant (KG) calculated as the slope of the logarithmic transformation of circulating glucose between 1 and 20 min after the glucose bolus. Multiple comparisons between the different groups were performed by one-way ANOVA. Tukey’s or Bonferroni’s post hoc test were used to calculate statistical differences between the groups. Significant statistical difference was considered at p<0.05. Data are presented as mean ± SEM.

[6] = target: T3, mouse GPR120 (Mus musculus, UniProt Q7TMA4); assay: cAMP production in CHO cells overexpressing mouse GPR120; assay type: cell-based; conditions: data not shown
T3 construct: expressed in transfected cells
T3 sequence (Q7TMA4 1-361): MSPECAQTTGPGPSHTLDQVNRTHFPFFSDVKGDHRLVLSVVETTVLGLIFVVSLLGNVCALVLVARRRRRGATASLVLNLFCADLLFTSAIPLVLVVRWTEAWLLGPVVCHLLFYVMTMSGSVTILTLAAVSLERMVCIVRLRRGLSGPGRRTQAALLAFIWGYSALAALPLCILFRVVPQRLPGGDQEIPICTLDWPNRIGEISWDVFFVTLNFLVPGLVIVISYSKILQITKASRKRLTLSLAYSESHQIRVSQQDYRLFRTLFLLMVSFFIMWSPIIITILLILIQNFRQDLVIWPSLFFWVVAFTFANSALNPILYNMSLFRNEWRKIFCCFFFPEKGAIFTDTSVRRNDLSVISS

[7] = exendin 9–39 30 nmol/kg i.p. 15 min prior to IVGTT

T2 sequence (Q76JU9 whole entry): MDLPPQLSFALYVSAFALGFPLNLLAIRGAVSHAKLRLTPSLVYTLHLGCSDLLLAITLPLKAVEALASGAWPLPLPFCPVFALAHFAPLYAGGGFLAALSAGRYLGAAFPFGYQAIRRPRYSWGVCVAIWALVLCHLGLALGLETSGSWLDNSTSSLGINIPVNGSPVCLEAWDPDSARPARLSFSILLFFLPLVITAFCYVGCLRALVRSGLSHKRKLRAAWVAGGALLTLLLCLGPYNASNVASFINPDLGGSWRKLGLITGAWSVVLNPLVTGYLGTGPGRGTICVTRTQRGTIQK

Row | Molecule | DMR response after Gαs inhibition [1] | DMR response after Gαi inhibition [1] | DMR response after Gαq inhibition [1] | EC50 ([1]; CHO-hGPR120 cells) | Activation of mouse GPR40 in calcium mobilization assay [2] | Calcium response in control CHO cells [3] | Glucose excursions following oral glucose administration [4] | Dose at which significantly improved glucose tolerance was observed [4] | Calculated unbound effective concentration, Ce50 [4] | Basal blood glucose [5] | Acute insulin response (AIR) ([5]; IVGTT) | Glucose elimination between 1 and 20 min ([5]; IVGTT) | Agonist-induced increase in insulin secretion after co-administration with exendin 9–39 [5, 7] | Time after iv glucose bolus up to which insulin levels were significantly elevated [5] | Activation or inhibition of cAMP production in CHO cells overexpressing mouse GPR120 [6] | other results
1 | 3-(3,5-difluoro-4-((3-methyl-1-phenyl-1H-pyrazol-5-yl)methoxy)phenyl)-2-methylpropanoic acid [Metabolex-36] | partly blocked | did not result in any significant decrease | only partly reduced | 570 ± 150 nM | did not activate | no response | concentration dependent reduction | 30 mg/kg | 0.6 µM | 6.9 ± 0.2 mM | significant increase | increased the glucose elimination | abolished | up to 5 minutes | unable to detect | Acute insulin response when given together with exendin 9–39 [5, 7]: reduced to vehicle levels; Glucose elimination when given together with exendin 9–39 [5, 7]: reduced to vehicle levels; Glucose lowering effect in combination with exendin 9–39 [5, 7]: abolished
2 | C#Cc1cc(Oc2cccnc2)cc(N2Cc3ccccc3S2(=O)=O)c1 [AZ13581837, 2-(3-ethynyl-5-(3-pyridyloxy)phenyl)-3H-1,2-benzothiazole 1,1-dioxide] | partly blocked | did not result in any significant decrease | only partly reduced | 5.2 ± 0.6 nM | did not activate | no response | concentration dependent reduction | 18 mg/kg | 0.02 µM | 7.1 ± 0.3 mM | significant increase | increased the glucose elimination | completely abolished | up to 10 minutes | unable to detect | Potency relative to Metabolex-36 in DMR response ([1]; CHO-hGPR120 cells, fold more potent than Metabolex-36): about 100 fold; Insulin secretion in IVGTT (agonist alone) ([5]; exendin 9–39 experiment, agonist alone vs vehicle): significant increase; Acute insulin secretion in wt mice ([5]; female wild type mice, AZ13581837 30 min prior to iv glucose, vs vehicle, p<0.05): significantly increased; Glucose elimination in wt mice compared to compound treated GPR120 null mice ([5]; female wt mice, IVGTT, p<0.05): increased
